In patent US20060063747A1, “Paroxetine cholate or cholic acid derivative salts, and composition comprising paroxetine and cholic acid or derivative thereof” (priority 2004, published 2006):
Where a name gives a salt, the structure may show the parent alone.

Assay: Stability comparison under severe conditions (0.3% hydrogen peroxide, 80° C., content by HPLC)
Assay type: physicochemical
Conditions: for Drug content, 24 hrs / Drug content, 48 hrs / Drug content, 120 hrs / Drug content, Initial / Drug content, 72 hrs / Drug content, 144 hrs: 1 mg/mL in 0.3% hydrogen peroxide, chamber at 80° C.
Method: Each of the drugs shown in Table 5 was completely dissolved in a 0.3% hydrogen peroxide solution at a concentration of 1 mg/mL. While storage under stressed conditions at 80° C., changes in the contents of the drugs were monitored. The 0.3% hydrogen peroxide solution is a solution commonly used to quickly determine the stability of drugs and provides stressed conditions for artificial acceleration of the oxidation of the drugs. The content analysis was conducted by HPLC in accordance with the paroxetine content analysis defined in USP.

Row | Compound | Drug content, 24 hrs [%] | Drug content, 48 hrs [%] | Drug content, 120 hrs [%] | Drug content, Initial [%] | Drug content, 48 hrs (hydrochloride) [%] | Drug content, 120 hrs (hydrochloride) [%] | Drug content, 72 hrs [%] | Drug content, 144 hrs [%] | Stability compared to other paroxetine salts (in words) (0.3% hydrogen peroxide, 80° C., HPLC)
1 | Fc1ccc([C@@H]2CCNC[C@H]2COc2ccc3c(c2)OCO3)cc1.O=C(O)[C@H]1OC(O)[C@H](O)[C@@H](O)[C@@H]1O [Paroxetine glucuronate] | 92.8 | 59.0 | 12.3 | 100.0 |  |  |  |  | 
2 | Fc1ccc([C@@H]2CCNC[C@H]2COc2ccc3c(c2)OCO3)cc1 [Paroxetine HCl, paroxetine hydrochloride] | 84.5 |  |  | 100.0 | 53.8 | 13.4 |  |  | 
3 | Fc1ccc([C@@H]2CCNC[C@H]2COc2ccc3c(c2)OCO3)cc1.O=S(=O)(O)c1ccc2ccccc2c1 [Paroxetine napsylate] | 60.4 |  |  | 100.0 |  |  | 16.1 | 3.5 | 
4 | paroxetine methanesulfonate | 74.4 | 31.8 |  | 100.0 |  |  | 16.6 |  | 
5 | Fc1ccc([C@@H]2CCNC[C@H]2COc2ccc3c(c2)OCO3)cc1.Fc1ccc([C@@H]2CCNC[C@H]2COc2ccc3c(c2)OCO3)cc1.O.O=C(O)C(O)C(O)C(=O)O.O=C(O)C(O)C(O)C(=O)O [Paroxetine tartarate] | 81.3 |  |  | 100.0 |  |  | 28.3 | 4.8 | 
6 | C[C@H](CCC(=O)NCC(=O)O)[C@H]1CC[C@H]2[C@@H]3[C@H](O)C[C@@H]4C[C@H](O)CC[C@]4(C)[C@H]3C[C@H](O)[C@]12C.Fc1ccc([C@@H]2CCNC[C@H]2COc2ccc3c(c2)OCO3)cc1 [Paroxetine glycocholate, paroxetine glycocholate] | 96.8 | 89.6 | 54.3 | 100.0 |  |  |  |  | highly stable
